This is an account of results in patent publication EP2138174A1, “PHARMACEUTICAL COMPOSITION IN THE FORM OF A SUBLINGUAL TABLET CONSISTING OF A NON-STEROIDAL ANTI-INFLAMMATORY AGENT AND AN OPIATE ANALGESIC FOR PAIN MANAGEMENT” (priority 2007, dated 2008).

Several values for one entry are separate records, joined by “and”; a condition that tells them apart may be missing. Equal entries are not always repeated. Structures can show the parent of a compound that is named as a salt. Where two headings read alike, the source gives them in different places.

One series deals with stomach. Kind of series: Gastrointestinal side effect measurement (gastric ulcers and erosions, relative to indomethacin). In kind it is in vivo, Female rats from Wistar type. The conditions noted are these: for Gastric lesion ((Index of ulcers in drug tests / Index of ulcers in indomethacin tests) x 100): relative to indomethacin 20 mg/kg = 100, same doses and schedule as ulcer column. The method, then:
Female rats from Wistar type (150-180 g body weight) were subject to fasting 24 hours before experimentation. […] 2.5 hours later, all the groups received a second administration of the same doses. Stomachs were examined at 5 hours after first treatment in the following way: animals were sacrificed and stomach was separated which was opened along its lower curvature, gently rinsing with formol (2%) and examined. Severity of induced gastric lesions with medicament was calculated as a ratio of number of lesions (stomach ulcer or erosion) caused by provided treatment and the number of lesions caused by indomethacin (100%). This was determined to reflect the side effects induced by medicament. The sum of the area of all the ulcers in the body of each animal was calculated and served as an ulcerative index. Gastric lesion percentage was calculated in the following way: % of gastric lesion = (IUM/IUI) × 100 [formula] wherein IUM is the Medicament Ulcerative Index on test (mm^2) and IUI is the Ulcerative Index for assayed Indomethacin (mm^2).
ABC was calculated for each drug combination and for each of the components. On the basis of addition of individual pharmacological effects (Seegers et al., 1981) an ABC equivalent to the sum was expected. If the sum of the corresponding individual ABC was higher than the theoretical sum, the result was determined as enhancement; when similar to the theoretical sum it was determined to show additive antinociceptive effects. ABC was obtained through the trapezoidal rule (Rowland and Trozer, 1989). All the values for each treatment were average ± S.E.M., for six animals. ABC values for drug combinations were compared with the values which were expected by using the Student test. […] A P<0.05 was determined as statistically significant.

The conditions of series [1]: in vivo. The method, then:
Blood samples were taken up to 24 hours after medicament delivery.
In order to determine whether bioavailability is existent or not between both medicaments, a logarithmic transformation of data was carried out and they were analyzed by means of the statistical package WinNonlinTM.
Confidence ranges proposed by FDA for semilogarithmic data in determining bioequivalency of two products are from 80 to 125%.

The conditions of series [2]: cited from earlier work.
The next series has as its system rat arthritic pain model. Briefly: PIFIR model: antinociceptive activity after intraarticular uric acid (rat arthritic pain model). In kind it is in vivo, Wistar [CRl (WI) BR] female rats. Further details: antinociceptive efficiency (ABC): dose or concentration left out as unconfirmed. The method, then:
A rat arthritic pain model was determined for said purpose. Data were interpreted by using a Surface Synergic Interaction Analysis (ISS) and an Isobolographic Analysis to determine the interaction nature. ISS is calculated from the total antinociceptive effect produced by a combination after a substraction of an antinociceptive effect produced separately by the drug.
For this trial, Wistar [CRl (WI) BR] female rats weighing 180-200 g. were weighed. Feed was maintained 12 hours before the water ad libitum access experiments. All the experimental procedures followed the recommendations of the Committee for Research and Ethical Issues of the International Association for the Study of Pain (Covino et al., 1980) and Guidelines on Ethical Standards for Investigations of Experimental Pain in Animals (Zimmermann, 1983) and they were carried out according to a protocol approved by the local Animal Ethics Committee. Animal number in experiment was kept at a […] and animals were maintained in a weathered room and light control with a 12-hour light/darkness cycle.
Uric acid was suspended in mineral oil; Ketorolac trometamine, tramadol hydrochloride and indomethacin were dissolved in carboxymethyl cellulose and orally administered.
Antinociceptive activity was determined by using a PIFIR model which has been described in detail (López-Muñoz et al., 1993). Animals were anesthetized with chamber ether (Pyrex-glass dryer saturated with ether vapor). Nociception was induced through an intraarticular injection (ia) of 0.5 mL uric acid suspended in mineral oil in the right-hind leg knee joint. Suspension was prepared by mixing 3.0 g of uric acid with 10 mL of mineral oil in a glass mortar with pestle (Pyrex). Intraarticular injection was carried out through the patellar ligament using a 1 mL glass syringe (Beckton Dickinson LTA, Brazil) with a 5 mm 24-needle. Immediately after, an electrode was implanted in the plantar surface of each hind claw between the plantar pads. Rats were allowed to recover from anesthesia and then a stainless steel cylinder was attached which was rotated at 4 rpm, forcing to the rats to walk for 2 minute periods every 30 minutes during 6.5 hours. It was not necessary a training period since rats learned it from the first minute. Contact time between each implanted electrode in rat limb and cylinder was registered. After the uric acid injection, rats progressively developed damaged limb dysfunction. […] This time was considered as zero time for antinoceptive effect measures; these effects are measured every 30 minutes during the following 4 hours. This allowed determining the course of the nociceptive effects in the same animal. Antinociception was considered as a recovery of contact time. Data are expressed as a performance percentage index (IF%; that is, contact time of injected leg divided by contact time of left leg, control, multiplied per 100). For the purpose of this trial, it was unavoidable to induce nociception in experimentation animals. However, care was taken in preventing an unnecessary suffering. All the experiments were performed between 7:00 A.M. and 2:00 P.M.
At the end of the study the rats were sacrificed.
Study data, tables and figures are expressed as IF%. IF% vs. time curves were prepared for each treatment and the corresponding time course was obtained. Antinociception was estimated as a recovery of IF%. Accumulated antinociceptive effect during all the observation period (4 hours) was determined as the area under the curve (ABC) for time course to obtain the dose-response curve and for analyzing the total antinociceptive effect obtained for the analgesic agent whether alone and in combination.
ABC was calculated for each drug combination and for each of the components. On the basis of addition of individual pharmacological effects (Seegers et al., 1981) an ABC equivalent to the sum was expected. […]

For series [3] the following is noted: ketorolac, cited from earlier work.
Where [4] appears, read: p.o., two administrations 2.5 hours apart, stomach examined at 5 hours, indomethacin 20 mg/kg, ketorolac 1 mg/kg, tramadol 17.8 mg/kg, combination as in title, six rats.

By Emax is commonly meant the size of the effect at its maximum, as opposed to the concentration needed. Usually bioavailability stands for dose-corrected exposure relative to a reference, in per cent.

For the compound `COc1ccc2c(c1)c(CC(=O)O)c(C)n2C(=O)c1ccc(Cl)cc1` [Indomethacin], in the series on stomach (setting [4]), the No. of erosions amounted to 30.0 ± 3.9 and the “Ulcers (sum of the area of all ulcers)” value is recorded as 51.6 ± 3.4 mm^2. In addition, the “Gastric lesion ((Index of ulcers in drug tests / Index of ulcers in indomethacin tests) x 100)” value in the series with stomach is 100%.
Turning to `O=C(c1ccccc1)c1ccc2n1CCC2C(=O)O` (centres unmarked) [Ketorolac, Ketorolac trometamine], the “Ratio (%Ref), LnAUCINF” value in series [1] (human) came out at 95.53 %Ref. The “Ratio (%Ref), Ln (Cmax)” value in series [1] stood at 72.78 %Ref. Further, the “dose removed by urine without any change” value in series [2] (ketorolac, remainder excreted in feces) is on record as “about 91%”. The maximal response (Emax) with rat arthritic pain model (IF% time course, ketorolac 0.32 mg/kg p.o. alone) came to 33.7 ± 8.7%. Besides, the ED50 with rat arthritic pain model (Rattus norvegicus, po, dose causing 50% of maximum possible effect, linear regression of dose-response curve, ± S.E.M., read-out: DE50 (the source's name)) is 0.86 ± 0.1 mg/kg. Further, the ABC with rat arthritic pain model (ketorolac 0.32 mg/kg p.o. alone, 4 hours) is listed as 65.0 ± 9.6 au; in the series on rat arthritic pain model (ketorolac 0.56 mg/kg p.o. alone, 4 hours) it was 98.7 ± 15.5 au; in the series with rat arthritic pain model (ketorolac 1.78 mg/kg p.o. alone, 4 hours), 279.0 ± 15.5 au. The “antinociceptive effect (ABC)” value with rat arthritic pain model (ketorolac 3.16 mg/kg p.o., maximum used dose) is 295.8 ± 14.9 au. The “effect on walking capacity of rats treated with vehicle” value in the series with rat arthritic pain model (ketorolac 0.18 -5.62 mg/kg, tramadol 3.16-56.23 mg/kg, no uric acid, data not shown) is given as “did not affect the walking capacity”. Also, the “antinociceptive efficiency (ABC)” value in the series with rat arthritic pain model (ketorolac p.o., area under IF% vs time curve, 4 hours, mean ± S.E.M., six animals) is 295.8 ± 14.9 au. In addition, in the series on stomach (setting [4]), the “Ulcers (sum of the area of all ulcers)” value is 13.7 ± 2.7 mm^2 and 13.7 ± 2.7^c mm^2. Besides, the “Gastric lesion ((Index of ulcers in drug tests / Index of ulcers in indomethacin tests) x 100)” value in the series on stomach turned out to be 26.6%. Also, the “start of analgesic effect” value is 30 min in series [3] (intramuscular administration) and 10 min in series [3] (oral administration).
Take `COc1cccc(C2(O)CCCCC2CN(C)C)c1` (centres unmarked) [Tramadol, Tramadol Hydrochloride]: in series [2] (in vivo, po), the bioavailability is on record as 79% and the “time to maximum plasma concentrations” value is 1.5 to 2 h. Besides, in the series with rat arthritic pain model (rat, in vivo), the “Antinociceptive effects (ABC)” value is 236.7 ± 11.0 au, the Emax worked out at 17.1 ± 9.1%, the “antinociceptive activity (ABC)” value came to 207.7 ± 24.7 au and the “effect on walking capacity of rats treated with vehicle” value was “did not affect the walking capacity”. Moreover, in the series on rat arthritic pain model (rat, in vivo), the “side effects (sedation, elation, dizziness and effects on walking capacity)” value was 50 % of animals. For the same compound, in the series on rat arthritic pain model (rat, in vivo, po), the DE50 is 44.29 ± 0.06 mg/kg. In addition, in the series on stomach (rat, in vivo), the No. of erosions is 0, the “Ulcers (sum of the area of all ulcers)” value was 0 mm^2 and the “ulcers or erosions (in words)” value is given as “did not cause ulcers or erosions”.
